For 18 compounds, IC50 results are on record in US20170334899A1, “AMINO-SUBSTITUTED ISOTHIAZOLES” (Bayer Pharma Aktiengesellschaft, priority 2014, published 2017).

The target in one test is T1, CDK2/CycE (Homo sapiens, UniProt P24941).
T1 construct: GST; purchased ProQinase GmbH (Freiburg, Germany); host or cells: insect cells (Sf9)
As to the kind of experiment: CDK2/CycE kinase assay (TR-FRET). It is filed as biochemical. The note with it: avg, read-out: CDK2 avg (IC50 [mol/l]). In a few lines: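 Read-out is a TR-FRET 665/620 nm emission ratio from EDTA-stopped reactions detected with anti-pRB(pSer807/pSer811), Eu-labelled anti-mouse IgG and streptavidin-XL665, scaled between no-enzyme and uninhibited wells. Reaction: Sf9-expressed GST-CDK2/GST-CycE, 15 min compound preincubation, 10 μM ATP, 0.75 μM biotin-peptide, 25 min, 22° C., pH 8.0 Tris buffer.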

Test [1] relates to human cervical tumor cell line HeLa (ATCC CCL-2). As to the kind of experiment: SAC-Formation - Nocodazole-Induced Assay. It is filed as cell-based. Particulars: Homo sapiens, HeLa, 24 h, HeLa cells, nocodazole 0.1 μg/ml together with test compound, decrease of mitotic cells (phospho-histone H3 Ser10). The procedure, abridged:
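Loss of phospho-histone H3 Ser10-positive cells, counted against Hoechst-stained nuclei by high-content imaging, marked mitotic breakthrough. Compounds (0.005–20 μM, 0.5% DMSO) were co-dosed with 0.1 μg/ml nocodazole onto HeLa cells for 24 h at 37 °C. Curves were fitted with a four-parameter Hill equation.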

The structures appear in SMILES notation.

Consider `Cc1nsc(Nc2cc(C#N)ccn2)c1C(=O)Nc1ccc(OC2CCN(CC(F)F)CC2)nc1` [Example 263, 5-[(4-cyanopyridin-2-yl)amino]-N-(6-{[1-(2,2-difluoroethyl)piperidin-4-yl]oxy}pyridin-3-yl)-3-methyl-1,2-thiazole-4-carboxamide], for which the IC50 on CDK2/CycE is greater than 20 µM; in test [1] it was 0.92 µM.

In the case of `Cc1nsc(Nc2cncc(C(F)(F)F)n2)c1C(=O)Nc1ccc(C(=O)N2CCN(CC(F)(F)F)CC2)cc1` [Example 272, 3-methyl-N-(4-{[4-(2,2,2-trifluoroethyl)piperazin-1-yl]carbonyl}phenyl)-5-{[6-(trifluoromethyl)pyrazin-2-yl]amino}-1,2-thiazole-4-carboxamide], the figures for the IC50 (on CDK2/CycE; in test [1]) were greater than 20 µM and 0.23 µM, respectively.

With `Cc1nsc(Nc2cnc(C(F)(F)F)cn2)c1C(=O)Nc1ccc(F)c(OC2CCN(CCF)CC2)c1` [Example 266, N-(4-fluoro-3-{[1-(2-fluoroethyl)piperidin-4-yl]oxy}phenyl)-3-methyl-5-{[5-(trifluoromethyl)pyrazin-2-yl]amino}-1,2-thiazole-4-carboxamide], the figures for the IC50 (on CDK2/CycE; in test [1]) were greater than 20 µM and 0.15 µM, respectively.

Consider `Cc1nsc(Nc2cnc3ccccc3n2)c1C(=O)Nc1cccc(NS(=O)(=O)C2CN(CC(F)(F)F)C2)c1` [Example 285, 3-methyl-5-(quinoxalin-2-ylamino)-N-[3-({[1-(2,2,2-trifluoroethyl)azetidin-3-yl]sulfonyl}amino)phenyl]-1,2-thiazole-4-carboxamide], for which the results for the IC50 (on CDK2/CycE; in test [1]) were greater than 20 µM and 2.2 µM, respectively.

Turning to `Cc1nsc(Nc2cnc(C(F)(F)F)cn2)c1C(=O)Nc1ccc(OC2CCN(CC(F)F)C2)nc1` (stereo not drawn) [Example 296, N-(6-{[1-(2,2-difluoroethyl)pyrrolidin-3-yl]oxy}pyridin-3-yl)-3-methyl-5-{[5-(trifluoromethyl)pyrazin-2-yl]amino}-1,2-thiazole-4-carboxamide], the figures for the IC50 (at CDK2/CycE; in test [1]) were greater than 20 µM and 0.18 µM, respectively.

Turning to `Cc1nsc(Nc2cnc(C(F)(F)F)cn2)c1C(=O)Nc1ccc(OCCNCCF)nc1` [Example 321, N-(6-{2-[(2-fluoroethyl)amino]ethoxy}pyridin-3-yl)-3-methyl-5-{[5-(trifluoromethyl)pyrazin-2-yl]amino}-1,2-thiazole-4-carboxamide], the IC50 on CDK2/CycE is no less than 20 µM; in test [1] it was 0.14 µM.

Turning to `COC(=O)CCCc1ccc(NC(=O)c2c(C)nsc2Nc2cc(C#N)ccn2)cc1` [Example 256, methyl 4-{4-[({5-[(4-cyanopyridin-2-yl)amino]-3-methyl-1,2-thiazol-4-yl}carbonyl)amino]phenyl}butanoate], the figures for the IC50 (on CDK2/CycE; in test [1]) were greater than 20 µM and 1.6 µM, respectively.

As for `CCN1CCC(Oc2ccc(NC(=O)c3c(C)nsc3Nc3cc(C#N)ccn3)cn2)CC1` [Example 26, 5-[(4-Cyanopyridin-2-yl)amino]-N-{6-[(1-ethylpiperidin-4-yl)oxy]pyridin-3-yl}-3-methyl-1,2-thiazole-4-carboxamide], the IC50 was no less than 20 µM at CDK2/CycE and 2.4 µM in test [1].

For `Cc1nsc(Nc2ccc(C#N)cn2)c1C(=O)Nc1ccc(OC2CCN(C(=O)OC(C)(C)C)CC2)nc1` [Example 27, tert-Butyl 4-({5-[({5-[(5-cyanopyridin-2-yl)amino]-3-methyl-1,2-thiazol-4-yl}-carbonyl)amino]pyridin-2-yl}oxy)piperidine-1-carboxylate], the IC50 on CDK2/CycE is no less than 20 µM; in test [1], 0.15 µM.

With `Cc1nsc(Nc2cnc(C(F)(F)F)cn2)c1C(=O)Nc1ccc(OCCO)nc1` [Example 277, N-[6-(2-hydroxyethoxy)pyridin-3-yl]-3-methyl-5-{[5-(trifluoromethyl)pyrazin-2-yl]amino}-1,2-thiazole-4-carboxamide], the IC50 on CDK2/CycE was greater than 20 µM; in test [1] it was 0.65 µM.

In the case of `Cc1nsc(Nc2cncc(C(F)(F)F)n2)c1C(=O)Nc1ccc(OC2CCN(CCC(F)(F)F)CC2)nc1` [Example 304, 3-methyl-5-{[6-(trifluoromethyl)pyrazin-2-yl]amino}-N-(6-{[1-(3,3,3-trifluoropropyl)piperidin-4-yl]oxy}pyridin-3-yl)-1,2-thiazole-4-carboxamide], the values for the IC50 (at CDK2/CycE; in test [1]) were greater than 20 µM and 0.13 µM, respectively.

`Cc1nsc(Nc2cnc(C(F)(F)F)cn2)c1C(=O)Nc1ccc(N(C)C)c(OCCCN(C)CCC(F)(F)F)c1` [Example 300, N-[4-(dimethylamino)-3-{3-[methyl(3,3,3-trifluoropropyl)amino]propoxy}phenyl]-3-methyl-5-{[5-(trifluoromethyl)pyrazin-2-yl]amino}-1,2-thiazole-4-carboxamide]: the IC50 is greater than 20 µM at CDK2/CycE and 0.44 µM in test [1].

As for `Cc1nsc(Nc2cnc(C(F)(F)F)cn2)c1C(=O)Nc1ccc(F)c(OCC2CCN(CC(F)F)C2)c1` (stereo not drawn) [Example 316, N-(3-{[1-(2,2-difluoroethyl)pyrrolidin-3-yl]methoxy}-4-fluorophenyl)-3-methyl-5-{[5-(trifluoromethyl)pyrazin-2-yl]amino}-1,2-thiazole-4-carboxamide], the IC50 at CDK2/CycE was no less than 20 µM; in test [1], 0.028 µM.

As for `Cc1nsc(Nc2cnc3ccccc3n2)c1C(=O)Nc1cccc(NS(=O)(=O)C2CN(CCF)C2)c1` [Example 287, N-[3-({[1-(2-fluoroethyl)azetidin-3-yl]sulfonyl}amino)phenyl]-3-methyl-5-(quinoxalin-2-ylamino)-1,2-thiazole-4-carboxamide], the IC50 was greater than 20 µM on CDK2/CycE and 7.2 µM in test [1].

On to `Cc1nsc(Nc2cnc3ccccc3n2)c1C(=O)Nc1cccc(NS(=O)(=O)C2CCN(CC(F)(F)F)CC2)c1` [Example 281, 3-methyl-5-(quinoxalin-2-ylamino)-N-[3-({[1-(2,2,2-trifluoroethyl)piperidin-4-yl]sulfonyl}amino)phenyl]-1,2-thiazole-4-carboxamide], for which the IC50 on CDK2/CycE was greater than 20 µM; in test [1], 1.2 µM.

Take `Cc1nsc(Nc2cnc(C(F)(F)F)cn2)c1C(=O)Nc1ccc(OCCNCC(F)(F)F)nc1` [Example 322, 3-methyl-N-(6-{2-[(2,2,2-trifluoroethyl)amino]ethoxy}pyridin-3-yl)-5-{[5-(trifluoromethyl)pyrazin-2-yl]amino}-1,2-thiazole-4-carboxamide]: the values for the IC50 (on CDK2/CycE; in test [1]) were no less than 20 µM and 0.069 µM, respectively.

For the compound `Cc1nsc(Nc2cnc(C(F)(F)F)cn2)c1C(=O)Nc1ccc(F)c(OCC2CCN(CC(F)F)CC2)c1` [Example 308, N-(3-{[1-(2,2-difluoroethyl)piperidin-4-yl]methoxy}-4-fluorophenyl)-3-methyl-5-{[5-(trifluoromethyl)pyrazin-2-yl]amino}-1,2-thiazole-4-carboxamide], the IC50 on CDK2/CycE is no less than 20 µM; in test [1] it was 0.031 µM.

Consider `Cc1nsc(Nc2cnc(C(F)(F)F)cn2)c1C(=O)Nc1ccc(C(=O)NC2CN(CC(F)(F)F)C2)cc1` [Example 270, 3-methyl-N-(4-{[1-(2,2,2-trifluoroethyl)azetidin-3-yl]carbamoyl}phenyl)-5-{[5-(trifluoromethyl)pyrazin-2-yl]amino}-1,2-thiazole-4-carboxamide], for which the IC50 on CDK2/CycE is greater than 20 µM; in test [1] it was 0.95 µM.
